Measurements as given in US20250243180A1, “TARGETED PROTEIN DEGRADATION” (Monte Rosa Therapeutics AG, priority 2023, published 2025).
pEC50, pIC50: −log10 of the molar value. Where two headings read alike, the source gives them in different places.

Experiments:
[1] = target: NEK7 (Homo sapiens (Human), UniProt Q8TDX7+Q96SW2); assay: NEK7 NanoBiT degradation assay in Cal51 NEK7 NanoBiT cell line; assay type: cell-based; conditions: Cal51 NEK7 NanoBiT cells, 24 hours; for Dmax: CAL-51
Method in brief: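 EC50 comes from a 4-parameter fit of control-normalized luminescence. The luminescence reports HiBiT-NEK7 (endogenous knock-in) complemented by stably expressed LgBiT in Cal51 cells after 24 h compound exposure at 37 °C. Final concentrations ran 1 μM to 0.05 nM, with Endurazine substrate present in the medium throughout.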

[2] = tested on: IL-1β release; assay: IL-1β release in human monocyte-derived macrophages, LPS/nigericin stimulation; assay type: cell-based; conditions: Macrophage, 24 h pre-treatment, LPS 3 h then 10 μM nigericin 1 h, read-out: IL-1b IC50 (NIG)
Experimental: (§1) Human monocytes were enriched and isolated from a buffy coat of healthy donor whole blood with a RosetteSep™ Human Monocyte Enrichment Cocktail (Cat.No. 15068, StemCell) and Ficoll-Plaque PLUS (Cat.No. H8889, Sigma). Monocytes were differentiated into macrophages by treatment with 100 ng/mL M-CSF for 6 days at 37° C., 5% CO2. Differentiated macrophages were seeded overnight (50,000 cells/well) in 100 µL of medium in a 96-well, white-bottom plate at 37° C., 5% CO2. Cells were treated with a concentration range of MGD for 24 hours prior to stimulation with nigericin. Macrophages were primed with […] LPS for 3 h followed by 1 h stimulation with 10 μM nigericin. Media of stimulated macrophages were collected and assayed for caspase 1 activity directly (Promega G9951), according to manufacturer's instructions. For IL-1β release assay, media of stimulated macrophages were collected and stored at −20° C., then thawed at 4° C. before assaying for IL-1β activity (Promega W6011), according to manufacturer's instructions.

[3] = target: CRBN-DDB1 (Homo sapiens (Human), UniProt Q96SW2); assay: Compound binding to CRBN by HTRF assay
Method in brief: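 Ki calculated via Cheng-Prusoff from geometric-mean EC50 values, after normalizing the HTRF ratio to lenalidomide (active) and DMSO (neutral) controls. Compounds (11 points, 1:3 steps) incubated 30 min at ambient temperature with CRBN-DDB1 2.5 nM, anti-His Tb cryptate and Cy5-thalidomide tracer 100 nM.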

[4] = tested on: Caspase-1 activity; assay: Caspase-1 activity in human monocyte-derived macrophages, LPS/nigericin stimulation; assay type: cell-based; conditions: Macrophage, 24 h pre-treatment, LPS 3 h then 10 μM nigericin 1 h, read-out: Caspase-1 IC50 (NIG)
Experimental: as §1

[5] = tested on: New Zealand White rabbits, MSU crystal gout model; assay: In vivo rabbit gout model (intra-articular MSU): joint swelling and CD31 staining; conditions: daily prophylactic treatment
Experimental: MSU crystals were prepared by dissolving uric acid (Aladdin, cat #U105582) in boiling water (1 g in 200 mL with 6 mL of 1 N NaOH). PH value was adjusted to 7.2 by HCl. The solution was stirred and cooled to room temperature and stored at 4° C. overnight. The precipitate was filtered with filter paper and dried under low heat to obtain MSU crystals. New Zealand White rabbits received an intra-articular injection of 1 mL of MSU crystals (50 mg/mL) into both knees (MSU group) or PBS (as vehicle, control group). n=10 for MSU groups; n=6 for PBS group.
For immunohistochemistry, bone sections were stained with anti-CD31 (Abcam #ab9498) diluted at 1:500. The nuclei were stained with hematoxylin. Slides were scanned using LEICA Aperio GT450 at 400× magnification. The number of positive blood vessels were counted blindly.
(a) To determine NEK7 degradation, spleens and peripheral blood mononuclear cells (PBMC) were analyzed by JESS for NEK7 and normalized to α-Tubulin from five representative animals. (b) The degree of joint swelling was determined by caliper measurements at the indicated time points. (c) Rabbit bone tissue sections were stained and quantified for anti-CD31 immunohistochemistry. Results expressed as mean±SEM. Statistical analysis was performed using two-way ANOVA. The difference was considered significant when p<0.05.

[6] = tested on: IL-1β; assay: IL-1β in human monocyte-derived macrophages, LPS/MSU stimulation; assay type: cell-based; conditions: 24 h pre-treatment, LPS + MSU 6 h, eight donors
Experimental: (§2) Human monocytes were enriched and isolated from a buffy coat of whole blood with a RosetteSep™ Human Monocyte Enrichment Cocktail (Cat.No. 15068, StemCell) and Ficoll-Plaque PLUS (Cat.No. H8889, Sigma). Monocytes were differentiated into macrophages by treatment with 100 ng/mL M-CSF for 6 days at 37° C., 5% CO2. Differentiated macrophages were seeded overnight (50,000 cells/well) in 100 μL of medium in a 96-well white-bottom plate at 37° C., 5% CO2. Cells were treated with a concentration range of MGD or the NLRP3 inhibitor selnoflast (Cat.No. HY-132831, MedChemExpress) for 24 h prior to stimulation with monosodium urate crystals (MSU). Macrophages were stimulated with […] lipopolysaccharide (LPS) and 0.2 mg/mL MSU for 6 h. Medium of stimulated macrophages were collected and assayed for caspase-1 activity directly (Promega G9951) as well as IL-1β (Promega W6010), according to manufacturer's instructions.
(§3) (a, b) Human monocyte-derived macrophages pre-treated with a dose-response of Compound 14 or selnoflast (NLRP3 inhibitor) for 24 h and stimulated with a combination of lipopolysaccharide (LPS) and monosodium urate crystals (MSU) for 6 h prior to supernatant collection. Monocytes were isolated from eight human donors. Caspase-1 (a) and IL-1β (b) in the supernatant are measured and data are expressed as percentage relative to mean values of DMSO conditions for each donor (technical triplicates). Means of eight donors are plotted and analyzed using a four-parameter logistic regression model.

[7] = tested on: Caspase-1 activity; assay: Caspase-1 activity in human monocyte-derived macrophages, LPS/MSU stimulation; assay type: cell-based; conditions: 24 h pre-treatment, LPS + MSU 6 h, eight donors
Experimental: as §2, §3

[8] = NEK7 degradation, read-out: NanoBiT Dmax
[9] = NEK7 degradation, read-out: NanoBiT DC50

NEK7, sequence (Q8TDX7 whole entry): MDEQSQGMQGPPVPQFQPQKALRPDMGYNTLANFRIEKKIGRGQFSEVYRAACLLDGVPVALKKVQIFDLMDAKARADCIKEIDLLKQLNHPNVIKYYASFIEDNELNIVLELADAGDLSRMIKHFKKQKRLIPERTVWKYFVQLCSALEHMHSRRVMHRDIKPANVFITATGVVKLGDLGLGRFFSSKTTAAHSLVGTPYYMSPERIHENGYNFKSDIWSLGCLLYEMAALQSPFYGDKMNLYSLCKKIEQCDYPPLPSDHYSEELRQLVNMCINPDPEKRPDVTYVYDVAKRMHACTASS
NEK7, sequence (Q96SW2 whole entry): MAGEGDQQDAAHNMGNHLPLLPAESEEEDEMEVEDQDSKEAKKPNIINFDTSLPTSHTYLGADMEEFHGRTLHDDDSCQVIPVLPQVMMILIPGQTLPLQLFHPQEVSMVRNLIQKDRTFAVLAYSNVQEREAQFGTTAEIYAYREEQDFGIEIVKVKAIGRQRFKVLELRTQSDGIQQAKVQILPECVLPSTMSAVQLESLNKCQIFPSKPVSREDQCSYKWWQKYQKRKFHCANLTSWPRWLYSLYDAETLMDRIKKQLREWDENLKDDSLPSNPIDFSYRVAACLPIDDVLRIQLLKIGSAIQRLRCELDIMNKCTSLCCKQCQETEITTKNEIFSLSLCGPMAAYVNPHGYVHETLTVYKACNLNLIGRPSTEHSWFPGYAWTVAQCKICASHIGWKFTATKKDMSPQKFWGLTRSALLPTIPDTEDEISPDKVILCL
NEK7, sequence (Q16531 2-1140 partner): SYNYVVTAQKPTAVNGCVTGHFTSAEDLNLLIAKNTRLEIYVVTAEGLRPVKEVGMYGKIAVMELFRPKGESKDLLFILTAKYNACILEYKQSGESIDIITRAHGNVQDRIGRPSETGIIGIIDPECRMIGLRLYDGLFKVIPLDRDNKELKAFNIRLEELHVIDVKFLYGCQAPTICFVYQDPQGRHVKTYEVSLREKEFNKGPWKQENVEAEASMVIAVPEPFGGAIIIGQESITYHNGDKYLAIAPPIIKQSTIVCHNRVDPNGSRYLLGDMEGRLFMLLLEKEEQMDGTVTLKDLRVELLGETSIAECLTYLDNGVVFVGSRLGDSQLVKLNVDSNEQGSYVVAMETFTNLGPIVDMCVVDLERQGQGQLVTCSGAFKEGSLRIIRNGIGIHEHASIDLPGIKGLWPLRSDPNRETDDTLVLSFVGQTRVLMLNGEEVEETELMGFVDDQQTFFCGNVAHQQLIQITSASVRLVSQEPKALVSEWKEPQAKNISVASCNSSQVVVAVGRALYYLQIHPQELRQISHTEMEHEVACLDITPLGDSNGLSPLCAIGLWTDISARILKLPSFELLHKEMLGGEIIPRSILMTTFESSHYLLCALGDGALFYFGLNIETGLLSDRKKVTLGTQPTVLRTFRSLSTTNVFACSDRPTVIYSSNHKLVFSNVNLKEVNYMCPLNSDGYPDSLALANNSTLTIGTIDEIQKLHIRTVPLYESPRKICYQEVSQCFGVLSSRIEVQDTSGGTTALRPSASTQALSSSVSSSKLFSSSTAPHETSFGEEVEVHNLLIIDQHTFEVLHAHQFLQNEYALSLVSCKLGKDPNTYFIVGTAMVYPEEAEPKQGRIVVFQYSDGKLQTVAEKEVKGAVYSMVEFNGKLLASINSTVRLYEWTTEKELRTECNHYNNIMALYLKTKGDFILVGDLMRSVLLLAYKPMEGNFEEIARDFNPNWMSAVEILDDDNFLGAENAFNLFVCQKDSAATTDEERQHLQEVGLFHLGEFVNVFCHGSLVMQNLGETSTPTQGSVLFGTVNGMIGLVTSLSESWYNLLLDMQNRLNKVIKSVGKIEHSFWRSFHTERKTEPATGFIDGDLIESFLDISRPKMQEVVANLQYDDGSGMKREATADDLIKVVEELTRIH
CRBN-DDB1, sequence (Q96SW2 whole entry): as the sequence (Q96SW2 whole entry) above
CRBN-DDB1, sequence (Q16531 whole entry partner): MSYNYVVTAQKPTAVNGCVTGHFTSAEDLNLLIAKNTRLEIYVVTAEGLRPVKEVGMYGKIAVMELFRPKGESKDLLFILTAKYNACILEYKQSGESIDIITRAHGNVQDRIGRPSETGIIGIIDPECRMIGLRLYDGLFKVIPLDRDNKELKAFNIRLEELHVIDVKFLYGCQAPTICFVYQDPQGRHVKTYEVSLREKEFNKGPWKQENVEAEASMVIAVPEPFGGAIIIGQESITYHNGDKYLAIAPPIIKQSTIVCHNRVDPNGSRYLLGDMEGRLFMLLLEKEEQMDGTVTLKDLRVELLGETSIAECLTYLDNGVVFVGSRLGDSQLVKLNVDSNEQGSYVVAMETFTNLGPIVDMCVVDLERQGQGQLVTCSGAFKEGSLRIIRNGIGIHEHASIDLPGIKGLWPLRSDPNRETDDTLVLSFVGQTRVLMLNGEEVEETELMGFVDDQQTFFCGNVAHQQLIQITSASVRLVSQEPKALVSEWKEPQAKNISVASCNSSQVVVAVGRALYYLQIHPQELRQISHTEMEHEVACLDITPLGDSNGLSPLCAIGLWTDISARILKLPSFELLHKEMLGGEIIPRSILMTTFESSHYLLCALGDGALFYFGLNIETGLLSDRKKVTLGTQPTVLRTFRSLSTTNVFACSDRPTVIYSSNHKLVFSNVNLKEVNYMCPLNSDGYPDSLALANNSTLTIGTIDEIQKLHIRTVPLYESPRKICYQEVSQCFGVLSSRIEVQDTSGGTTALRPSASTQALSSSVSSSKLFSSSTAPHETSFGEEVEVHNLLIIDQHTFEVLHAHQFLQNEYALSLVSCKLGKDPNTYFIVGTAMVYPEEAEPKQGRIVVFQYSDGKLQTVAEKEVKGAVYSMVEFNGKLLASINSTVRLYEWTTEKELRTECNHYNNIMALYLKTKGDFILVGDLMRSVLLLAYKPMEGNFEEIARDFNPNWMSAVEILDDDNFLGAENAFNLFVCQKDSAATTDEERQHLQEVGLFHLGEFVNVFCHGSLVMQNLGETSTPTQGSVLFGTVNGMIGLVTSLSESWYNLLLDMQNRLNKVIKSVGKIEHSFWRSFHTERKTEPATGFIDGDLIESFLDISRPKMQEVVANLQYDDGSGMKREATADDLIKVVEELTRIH

Compound	Dmax ([1]; read-out: NEK7 NanoBiT Dmax)	Dmax [1, 8]	DC50 ([1]; read-out: NEK7 NanoBiT DC50)	DC50 [1, 9]	pIC50 [2]	pEC50 [3]	pEC50 ([3]; HTRF class, Cereblon binding)	pIC50 [4]	pIC50 ([6]; Homo sapiens, Macrophage)	pIC50 ([7]; Homo sapiens, Macrophage)	CD31 staining in bone tissue [5]	joint swelling induced by intra-articular MSU injection [5]	IL-1β Imax [6]	Caspase-1 activity Imax [7]
CC(C)(C(=O)NCc1cc(Cl)c(C2CCC(=O)NC2=O)c(Cl)c1)c1ncccn1 (centres unmarked) [Compound 34]	78%	> 75%	28 nM	≤ 100 nM	8.13	6.85	6.00 to 7.00	8.14						
CC(C)(C(=O)NCc1cc(Cl)c(C2CCC(=O)NC2=O)c(Cl)c1)c1ccnc(F)c1 (centres unmarked) [Compound 93]	92%	> 75%	4 nM	≤ 100 nM	9.05	7.15	≥ 7.00	9.35						
Cc1cc(C(C)(C)C(=O)NCc2cc(Cl)c(C3CCC(=O)NC3=O)c(Cl)c2)ccn1 (centres unmarked) [Compound 95]	92%	> 75%	6 nM	≤ 100 nM	8.92	7.00	≥ 7.00	9.09						
CC(C)(C(=O)NCc1cc(Cl)c(C2CCC(=O)NC2=O)c(Cl)c1)c1ccnc(C(F)(F)F)c1 (centres unmarked) [Compound 97]	76%	> 75%	50 nM	≤ 100 nM	8.28	6.77	6.00 to 7.00	8.23						
Cc1nnc(C(C)(C)C(=O)NCc2cc(Cl)c(C3CCC(=O)NC3=O)c(Cl)c2)o1 (centres unmarked) [Compound 110]	76%	> 75%	50 nM	≤ 100 nM	8.01	6.49	6.00 to 7.00	7.95						
Cc1cnc(C(C)(C)C(=O)NCc2cc(Cl)c(C3CCC(=O)NC3=O)c(Cl)c2)cn1 (centres unmarked) [Compound 162]	86%	> 75%	13 nM	≤ 100 nM	8.69	6.54	6.00 to 7.00	8.78						
CC(C)(C(=O)NCc1cc(Cl)c(C2CCC(=O)NC2=O)c(Cl)c1)c1ncc(C(F)F)cn1 (centres unmarked) [Compound 181, N-(3,5-dichloro-4-(2,6-dioxopiperidin-3-yl)benzyl)-2-(5-(difluoromethyl)pyrimidin-2-yl)-2-methylpropanamide]	93%	> 75%	5 nM	≤ 100 nM	8.71	6.72	6.00 to 7.00	8.71						
CC(C)(C(=O)NCc1cc(Cl)c(C2CCC(=O)NC2=O)c(Cl)c1)c1ccc(C2CC2)nn1 (centres unmarked) [Compound 192]	92%	> 75%	5 nM	≤ 100 nM	9.03	7.05	≥ 7.00	9.12						
C[C@]12C=CC(=O)C=C1CC[C@@H]1[C@@H]2[C@@H](O)C[C@@]2(C)[C@H]1CC[C@]2(O)C(=O)CO [prednisolone]											improvement	improvement		
CCN1CCC(S(=O)(=O)NC(=O)Nc2c3c(cc4c2CCC4)CCC3)CC1 [selnoflast, reference compound]									6.13	6.07	improvement	improvement	79%	89%

Second part, led by results:

Dmax ([1]; read-out: NEK7 NanoBiT Dmax)	Dmax [1, 8]	DC50 ([1]; read-out: NEK7 NanoBiT DC50)	DC50 [1, 9]	pIC50 [2]	pEC50 [3]	pEC50 ([3]; HTRF class, Cereblon binding)	pIC50 [4]	pIC50 ([6]; Homo sapiens, Macrophage)	pIC50 ([7]; Homo sapiens, Macrophage)	Compound	CD31 staining in bone tissue [5]	joint swelling induced by intra-articular MSU injection [5]	IL-1β Imax [6]	Caspase-1 activity Imax [7]
97%	> 75%	1 nM	≤ 100 nM	9.51	7.52	≥ 7.00	9.85			CC(C)(C(=O)NCc1cc(Cl)c(C2CCC(=O)NC2=O)c(Cl)c1)c1ccccc1 (centres unmarked) [Compound 37, N-(3,5-dichloro-4-(2,6-dioxopiperidin-3-yl)benzyl)-2-methyl-2-phenylpropanamide]				
97%	> 75%	2 nM	≤ 100 nM	9.08	7.15	≥ 7.00	9.31			CC(C)(C(=O)NCc1cc(Cl)c(C2CCC(=O)NC2=O)c(Cl)c1)c1ccc(S(N)(=O)=O)cc1 (centres unmarked) [Compound 76]				
97%	> 75%	1 nM	≤ 100 nM	9.70	7.10	≥ 7.00	9.89			CC(C)(C(=O)NCc1cc(Cl)c(C2CCC(=O)NC2=O)c(Cl)c1)c1ccc(F)cc1 (centres unmarked) [Compound 96]				
92%	> 75%	3 nM	≤ 100 nM	9.39	7.10	≥ 7.00	9.27			CC(C)(C(=O)NCc1cc(Cl)c(C2CCC(=O)NC2=O)c(Cl)c1)c1ccncc1 (centres unmarked) [Compound 108]				
